Where two headings read alike, the source gives them in different places.
Experiments:
type 3a follicles = assay: Pilot study in mice injected IP daily for two weeks: histological count of follicle types per ovary; assay type: in vivo; settings: for Reduction in number of type 3a follicles: two weeks, vs PBS controls
Method: (§1) Not to be bound to any particular mechanism, it is believed that in one aspect of the present invention, by administering a therapeutically effective amount of the non-hormonal contraceptive composition to a female subject, cellular signals are induced activating a regulatory factor which blocks maturation of the […] and suppresses ovulation. In one example, a pilot study was conducted in which 5-week-old mice were intraperitoneally (IP) injected daily with 2-DG for two weeks. To determine an effective dose, 100, 300 and 600 mg/kg 2-DG was tested, with 6 animals in each treated group and 6 mice in the control group (0) injected with PBS. Following the two week study, the mice were sacrificed and the ovaries removed for mRNA and histological analyses. […] The contralateral ovary was used for histological analysis of the total numbers of follicle types in the entire ovary. Ovaries were fixed in 10% neutral buffered formalin, embedded in paraffin, then serially sectioned at 8 μm and stained with hematoxylin. Follicles were counted in every fifth section with random start. Follicles were classified following Pedersen and Peters guidelines. Most relevant to the data presented here, type 3a and 3b follicles were classified as having a single layer of granulosa cells surrounding the oocyte, and the two were distinguished from each other by the number of granulosa cells in that single layer. […] Only follicles containing an oocyte with a clearly visible nucleus were scored, to ensure that each follicle was counted only once. It should be noted that type 3a follicles are the first stage of folliculogenesis from the primordial follicle, the dormant stage at which FOXO3a acts as a brake. After follicles were counted in each fifth section, the total number of each type was multiplied by a correction factor of five to estimate total number of follicles in each ovary. The collective data is shown in the bar graph in FIG. 5. […] This is particularly advantageous as it allows lower dosages of one of the analogs or dosages of two or more analogs in therapeutic compositions. […]

[1] = cited from earlier work
Foxo3a mRNA [2] = assay: Pilot study in mice injected IP daily for two weeks: ovary Foxo3a mRNA by real-time RT-PCR; assay type: in vivo; settings: for Foxo3a mRNA levels in ovary, increase: two weeks, 5-week-old mice
Method: as §1

FOXO3a protein = assay: Immunoblot analysis of FOXO3a protein levels in SKOV3 cells; assay type: cell-based, human; settings: vs FED/MEM control
From the text: In another embodiment, the subject invention relates to a method for decreasing the fertility of a subject, comprising administering a therapeutically effective amount of a glucose analog to the subject, wherein the glucose analog comprises one or more of (i) 2-deoxyglucose (2DG) or a combination of 2DG with chemical derivatives of 2DG with similarly documented ovarian activity; (ii) D-mannoheptulose; or (iii) 5-thio-D-glucose; and the administering step inhibits ovulation in the female subject. In a further embodiment, the glucose analog elevates the production of FOXO3a. In yet a further embodiment, FOXO3a prevents activation of oocytes during follicle development. In another embodiment, a therapeutically effective amount of at least one glucose analog is co-administered to the subject. In one example, FOXO3a mRNA and protein levels are induced in response to amino acid and glucose_deprivation in human ovarian carcinoma (SKOV3) cells. In order to establish a connection between FOXO3a and glucose deprivation, one example was used in which human ovarian carcinoma (SKOV3) cells were treated with 2-deoxyglucose (2-DOG or 2-DG) followed by mRNA analysis by real-time RT-PCR (FIG. 1) and immunoblot analysis (FIG. 2). […] The fold increases were determined using a ΔΔCT method with cyclophilin A as the internal reference gene for each sample. […]

[3] = animal metabolic and nutritional studies, human nutritional and cancer studies/clinical trials; cited from earlier work
FOXO3a = assay: Mouse ovarian organ culture, FOXO3a mRNA and protein expression; assay type: cell-based
Foxo3a mRNA [4] = assay: Foxo3a mRNA by real-time RT-PCR in SKOV3 cells treated with 2-deoxyglucose; assay type: cell-based, human
From the text: In another embodiment, the subject invention relates to a method for decreasing the fertility of a subject, comprising administering a therapeutically effective amount of a glucose analog to the subject, wherein the glucose analog comprises one or more of (i) 2-deoxyglucose (2DG) or a combination of 2DG with chemical derivatives of 2DG with similarly documented ovarian activity; (ii) D-mannoheptulose; or (iii) 5-thio-D-glucose; and the administering step inhibits ovulation in the female subject. In a further embodiment, the glucose analog elevates the production of FOXO3a. In yet a further embodiment, FOXO3a prevents activation of oocytes during follicle development. In another embodiment, a therapeutically effective amount of at least one glucose analog is co-administered to the subject. In one example, FOXO3a mRNA and protein levels are induced in response to amino acid and glucose_deprivation in human ovarian carcinoma (SKOV3) cells. In order to establish a connection between FOXO3a and glucose deprivation, one example was used in which human ovarian carcinoma (SKOV3) cells were treated with 2-deoxyglucose (2-DOG or 2-DG) followed by mRNA analysis by real-time RT-PCR (FIG. 1) and immunoblot analysis (FIG. 2). 2-DG has been effectively employed as an alternative to glucose (deprivation) depletion. […] The fold increases were determined using a ΔΔCT method with cyclophilin A as the internal reference gene for each sample. […] Control cells (FED/MEM) were given complete media.

[5] = women, cited from earlier work
[6] = preliminary dose response studies, mice injected for two weeks

Compound: O=CC[C@@H](O)[C@H](O)[C@H](O)CO [2-DG, 2-deoxyglucose]
- Reduction in number of type 3a follicles (type 3a follicles; 100 mg/kg IP daily): ~60%
- Reduction in number of type 3a follicles (type 3a follicles; 600 mg/kg IP daily): 32%
- Decrease in maturation of primary follicles (type 3a follicles; [6]): 32-60%
- Solubility in aqueous solutions [1]: freely soluble
- Foxo3a mRNA levels in ovary, increase (Foxo3a mRNA [2]; 100 mg/kg IP daily): ~4 fold
- Foxo3a mRNA levels in ovary, increase (Foxo3a mRNA [2]; 600 mg/kg IP daily): ~2.75 fold
- Increase in mRNA synthesis of FOXO3a in the ovary (Foxo3a mRNA [2]; [6]): 2-4 fold
- Foxo3a protein levels (FOXO3a protein): increased
- Side effects [3]: no documented side effects
- FOXO3a mRNA and protein expression (FOXO3a): specific induction
- Duration of Foxo3a mRNA induction (Foxo3a mRNA [4]; SKOV3 cells): maintained out to 24 h
- Foxo3a mRNA induction (Foxo3a mRNA [4]; SKOV3 cells, by 4 h, ΔΔCT vs cyclophilin A): approximately 2.5 fold
- FOXO3a mRNA and protein expression (Foxo3a mRNA [4]; human ovarian carcinoma cells in culture): specific induction

Compound: N[C@H](CO)Cc1c[nH]cn1 [His-OH, histidinol, reference compound]
- Foxo3a protein levels (FOXO3a protein): increased

Compound: CC(=O)O[C@]1(C(C)=O)CC[C@H]2[C@@H]3C[C@H](C)C4=CC(=O)CC[C@]4(C)[C@H]3CC[C@@]21C [depot medroxyprogesterone acetate, medroxyprogesterone acetate]
- Loss in bone mineral density ([5]; after 24 months of use, average): 5.7%
- Loss in bone mineral density ([5]; between months 12 and 24): 3.2%
